Measurements published in publication PMC2939770 (Bioorganic & Medicinal Chemistry, 2010).

Key:
[1] = test system: 6PGDH; design: method as in PMID 9307279; conditions: might bind to the cofactor binding site; cited from earlier work
[2] = target: T1, T. brucei 6PGDH (Trypanosoma brucei brucei, UniProt P31072); conditions: for Hill slope: slope of the IC50 curve, recombinant Tb6PGDH; for Ligand efficiency: −RTLn(IC50)/HAC, HAC: heavy atom count; for confirmation of enzyme inhibition on re-test: second round, repurchased hits of the first screening
T1 sequence (P31072 1-479): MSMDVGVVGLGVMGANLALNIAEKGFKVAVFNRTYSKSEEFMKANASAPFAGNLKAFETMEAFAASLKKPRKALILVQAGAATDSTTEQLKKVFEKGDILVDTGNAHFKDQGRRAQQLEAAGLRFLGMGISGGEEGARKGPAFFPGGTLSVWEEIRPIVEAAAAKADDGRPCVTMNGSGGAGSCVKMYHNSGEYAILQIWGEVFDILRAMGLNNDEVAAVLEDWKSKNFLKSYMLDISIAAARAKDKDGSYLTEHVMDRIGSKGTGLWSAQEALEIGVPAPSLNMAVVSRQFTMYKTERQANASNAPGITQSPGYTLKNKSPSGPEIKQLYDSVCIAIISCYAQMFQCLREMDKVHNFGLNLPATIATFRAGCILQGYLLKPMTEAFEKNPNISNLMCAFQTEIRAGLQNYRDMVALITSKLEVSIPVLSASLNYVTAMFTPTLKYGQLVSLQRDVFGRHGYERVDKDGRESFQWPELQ
Procedure: (§1) Inhibition studies involved a reaction in 50 mM triethanolamine pH 7.0, 2 mM MgCl2. NADPH and 6PG were each at 20 μM. Total reaction volume was 1 ml. The reaction was followed in a Perkin Elmer UV–vis spectrophotometer. Compounds were dissolved in DMSO and initially added at 200 μM, then 50 μM.

[3] = target: T1, T. brucei 6PGDH; assay: biochemical
Procedure: as §1

NC(=O)c1ccc(N)nc1 [6-aminonicotinamide]
inhibition of 6PGDH [1]: potential inhibitor of 6PGDH

O=C1C=C(S(=O)(=O)[O-])c2ccccc2C1=O.[K+] [Compound 16]
Hill slope [2]: 4.8

O=C1CC(S(=O)(=O)[O-])c2ccccc2/C1=N/O.[Na+] (centres unmarked) [Compound 11]
Hill slope [2]: 1.4
Ligand efficiency [2]: 0.33 (kcal/mol)/HAC
IC50 [3]: 73 ± 9 µM

O=C(O)c1cc(Cl)c[nH]1 [Compound 2]
Hill slope [2]: 1.8
Ligand efficiency [2]: 0.66 (kcal/mol)/HAC
IC50 [3]: 43 ± 9 µM

O=C(O)c1cc2sccc2[nH]1 [Compound 13]
Hill slope [2]: 1.1
Ligand efficiency [2]: 0.54 (kcal/mol)/HAC
IC50 [3]: 42 ± 7 µM

NC(CS(=O)(=O)O)C(=O)O (centres unmarked) [Compound 10]
confirmation of enzyme inhibition on re-test [2]: did not confirm the previous reported activity

O=C(O)C(=Cc1ccc([N+](=O)[O-])o1)C(=O)O [Compound 15]
Hill slope [2]: 5.2
Ligand efficiency [2]: 0.36 (kcal/mol)/HAC
IC50 [3]: 56 ± 6 µM

O=C(O)c1cc(Cl)c(Cl)[nH]1 [Compound 18]
Hill slope [2]: 2.1
Ligand efficiency [2]: 0.60 (kcal/mol)/HAC
IC50 [3]: 42 ± 3.7 µM

NC(C(=O)O)c1ccsc1 (centres unmarked) [Compound 5]
confirmation of enzyme inhibition on re-test [2]: did not confirm the previous reported activity

Cc1c(C(=O)O)[nH]c(-c2[nH]c(C(=O)O)c(C)c2C)c1C [Compound 14]
Hill slope [2]: 1.4
Ligand efficiency [2]: 0.27 (kcal/mol)/HAC
IC50 [3]: 114 ± 27 µM

N#C/C(=C\c1ccc([N+](=O)[O-])o1)C(=O)O [Compound 17]
Hill slope [2]: 2.0
Ligand efficiency [2]: 0.48 (kcal/mol)/HAC
IC50 [3]: 5.8 ± 0.6 µM

CCOC(=O)c1[nH]c(C(=O)O)c(C)c1C [Compound 1]
Hill slope [2]: 1.6
Ligand efficiency [2]: 0.40 (kcal/mol)/HAC
IC50 [3]: 45 ± 11 µM

Cc1oc([N+](=O)[O-])cc1C(=O)O [Compound 3]
Hill slope [2]: 1.5
Ligand efficiency [2]: 0.52 (kcal/mol)/HAC
IC50 [3]: 28 ± 6 µM

Cc1c(C(=O)O)oc2c1C(=O)CSC2 [Compound 12]
Hill slope [2]: 1.7
Ligand efficiency [2]: 0.42 (kcal/mol)/HAC
IC50 [3]: 51 ± 3 µM

NC(=O)N1CCCC1C(=O)O (centres unmarked) [Compound 4]
confirmation of enzyme inhibition on re-test [2]: did not confirm the previous reported activity
